Measured values as given in patent US20240408053A1, “ENTERITIS-SUPPRESSING COMPOSITION” (KOBE GAKUIN EDUCATIONAL FOUNDATION, priority 2021, published 2024).
Marks after values point to notes of the source that are not given here.

How the values were obtained:
ZO-1 [1] = assay: Immunofluorescence staining of ZO-1 in colon tissue, 4 weeks; type: in vivo, mice; conditions: group ES: 2.0% v/v ethanol diet + 2.5 mg sesaminol per day oral, group E significant decrease
Description: (§1) Next, in order to verify the longer-term effect of oral administration of sesaminol on ethanol-induced intestinal tight junction (TJ) dysfunction and leaky gut, histological analysis of colonic epithelial TJ proteins (ZO-1, Occludin, and Claudin-1) and analysis of the plasma LPS level were performed using the mice in each group (groups C, S, E, and ES) described in Example 7. Histological analysis was performed by immunofluorescence staining with anti-ZO-1, anti-Occludin, and anti-Claudin-1 antibodies, followed by observation under a fluorescence microscope. The Plasma LPS level was measured according to the method described in Example 6.

[2] = AST and ALT activities and TG concentration in the plasma, 4 weeks; type: in vivo, mice; conditions: mean ±SD
Description: The liver function and plasma lipid level in the mice in each group were examined by measuring the percentage of the liver weight relative to the body weight, the triglyceride (TG) concentration in the liver, the aspartate aminotransferase (AST) activity in the plasma, the alanine aminotransferase (ALT) activity in the plasma, and the TG concentration in the plasma of the mice in each group.
The AST and ALT activities and TG concentration in the plasma were measured according to the product protocol using dedicated reagent kits for each test item (L-Type Wako AST, L-Type Wako ALT, and L-Type Wako TG M, produced by FUJIFILM Wako Pure Chemical Corporation).

LPS [3] = assay: Plasma LPS level (LAL assay), 2 weeks; type: in vivo, mice; conditions: group ES: 2.0% v/v ethanol diet + 2.5 mg sesaminol per day oral, vs group E, higher than group C
Text: (§2) Acetaldehyde, which accumulates during ethanol metabolism, is known to disrupt intestinal tight junctions (TJs) via dissociation of colonic epithelium TJ proteins (ZO-1, occludin, and claudin-1) from the cytoskeleton. […] Therefore, whether oral administration of sesaminol would affect ethanol-induced intestinal barrier dysfunction was examined by analyzing the expression levels of colonic epithelial TJ proteins and the plasma LPS level in the mice in the four groups (groups C, S, E, and ES).
(§3) The plasma LPS concentration was measured with a limulus amebocyte lysate (LAL) assay.

secretory IgA = assay: Amount of secretory IgA in colon tissue of mice; type: in vivo; conditions: group ES: 2.0% v/v ethanol diet + 2.5 mg sesaminol per day oral, 4 weeks, vs group E; level similar to group C
Description: (§4) The effect of oral administration of sesaminol on the amount of mucus secretion in mouse colon was examined by measuring the amount of fecal mucin of the mice in each group (groups C, E, S, and ES) and the amount of secretory immunoglobulin A (sIgA) in the colon tissue of the mice.
After liquid nitrogen treatment, the amount of sigA in each colon tissue stored at −80° C. was quantified according to the product protocol of a reagent kit for measuring secretory IgA (QuickDetect (trademark) Secretory IgA (Mouse) ELISA kit, produced by BioVision, Inc.). The resulting value was converted to the secretory IgA concentration (ng/ml) per 100 mg of the tissue and evaluated.

MCP-1 = MCP-1 expression in colon tissue (qRT-PCR, ELISA); type: in vivo, mice; conditions: group ES: 2.0% v/v ethanol diet + 2.5 mg sesaminol per day oral, 2 weeks, vs group E; higher than group C
Text: It has been reported that chronic consumption of an excessive amount of ethanol can induce inflammation associated with tumor formation in colon tissue. Therefore, in order to verify whether oral administration of sesaminol has a preventive effect on ethanol-induced colitis, the expression levels of inflammatory cytokines (TNF-α and IL-6) and chemokine (MCP-1) in the large intestinal lamina propria of the mice in the four groups (groups C, S, E, and ES) were examined by qRT-PCR and ELISA. The NF-κB activity in the mice in the four groups was also examined. NF-κB is a transcription factor that is involved in expression of genes regulating inflammation and is activated by exposure of immune cells to pro-inflammatory factors.
Total RNA was extracted from colon tissue samples. […]
A colon tissue sample (100 mg) was homogenized in 1 mL of an M-PER mammalian protein extraction reagent (Pierce) containing a diluent of a protease inhibitor cocktail (Nacalai Tesque, Inc.), and the resulting homogenate was centrifuged at 20,000× g at 4° C. for 15 minutes. The protein concentration of the supernatant was measured with a protein assay reagent (Bio-Rad Laboratories, Inc.), and equal amounts of proteins were used for analysis of the expression levels of TNF-α, IL-6, and MCP-1 by ELISA.

LPS [4] = assay: Plasma LPS level, 4 weeks; type: in vivo, mice; conditions: group ES: 2.0% v/v ethanol diet + 2.5 mg sesaminol per day oral, vs group E, level similar to groups C and S
Description: as §3, §1

fecal mucin = assay: Amount of fecal mucin of mice; type: in vivo; conditions: group ES: 2.0% v/v ethanol diet + 2.5 mg sesaminol per day oral, 4 weeks, vs group E; level similar to group C
Text: as §4
Fecal samples were each freeze-dried overnight in a freeze-drying equipment and then formed into a powder. After weighing each of the dried, powdered feces, fecal mucin was quantified according to the product protocol of a reagent kit for measuring fecal mucin (Fecal Mucin Assay Kit, produced by Cosmo Bio Co., Ltd.), and converted to the mucin amount (ug) per amount of dry feces (g). The results were evaluated.

mouse gut microbiota = assay: Structural analysis of mouse gut microbiota (16S rRNA sequencing); type: in vivo, mice; conditions: 4 weeks
Description: Additionally, the gut microbiota structures of the mice in each group (groups C, E, S, and ES) were analyzed.
The mouse gut microbiota 16S rRNA sequencing was outsourced to MyMetagenome Co., Ltd.
Immediately after collection, mouse feces was treated with liquid nitrogen and stored at −80° C. While the fecal samples were frozen, treatment was performed, and the extracted nucleic acids were used as samples for sequence analysis. The measurement was performed using a next-generation sequencer (NGS) (MiniSeq, Illumina, K.K.), and the results of 16S rRNA genes (the V1-V2 region) and sequences of 5,000 reads or more from the extracted nucleic acids were used for analysis. For the analysis of bacterial flora structure, raw sequence data processing and well-known sequence data analysis were performed, and the analysis was clustered at a 96% pairwise identity cutoff for 16S reads. Similarity values were assigned to the phylum and genus categories.

ZO-1 [5] = assay: Western blotting of ZO-1 in colon tissue; type: in vivo, mice; conditions: group ES: 2.0% v/v ethanol diet + 2.5 mg sesaminol per day oral, 2 weeks, vs group E; lower than group C
Text: as §2
WB was performed in the same manner as in Example 4 above. The following primary antibodies were used. • Anti-mouse zonula occludens-1 protein (ZO-1) rabbit polyclonal antibody • Anti-mouse occludin rabbit polyclonal antibody • Anti-mouse claudin-1 rabbit polyclonal antibody

[6] = EtOH (2.0% v/v) + Sesaminol group ES
[7] = group S: 2.5 mg sesaminol per day oral, no ethanol, vs group C

## Oc1cc2c(cc1C1OCC3C(c4ccc5c(c4)OCO5)OCC13)OCO2 (stereo not drawn) [Sesaminol]
ZO-1 [1]
  protein level of ZO-1 in colon tissue (fluorescence microscope observation): improvement in all of those levels
[2]; [6]
  Plasma ALT: 45.8 ± 6.6*^, †, ### U/L
  Plasma AST: 43.5 ± 7.6 U/L
  Plasma TG: 0.65 ± 0.13 mmol/L
[2]; Sesaminol (2.5 mg/d) group S
  Plasma ALT: 33.3 ± 5.7 U/L
  Plasma AST: 41.3 ± 6.8 U/L
  Plasma TG: 0.53 ± 0.14 mmol/L
LPS [3]
  plasma LPS level: significantly lower than that in group E
Secretory IgA
  amount of secretory IgA in colon tissue: significantly higher than that in group E
MCP-1
  expression level of MCP-1 (mRNA by qRT-PCR, protein by ELISA): significantly lower than those in group E
LPS [4]
  plasma LPS concentration: significant and considerable decrease in the plasma LPS concentration compared with group E
Fecal mucin
  amount of fecal mucin: significantly higher than that in group E
Mouse gut microbiota; group ES: 2.0% v/v ethanol diet + 2.5 mg sesaminol per day oral
  bacterial flora structure at the phylum level (abnormalities observed in group E: Tenericutes, Verrucomicrobia, Proteobacteria, Actinobacteria increased): recovered to the same level as group C
Mouse gut microbiota; group ES: 2.0% v/v ethanol diet + 2.5 mg sesaminol per day oral, group E significant decrease
  relative abundance of the family Lachnospiraceae, the family Ruminococcaceae, and the family Tannerellaceae: recovered to the same level as that in group C
Mouse gut microbiota; group ES: 2.0% v/v ethanol diet + 2.5 mg sesaminol per day oral, group E significant increase
  relative abundance of the family Enterobacteriaceae and the family Streptococcaceae: recovered to the same level as that in group C
Mouse gut microbiota; [7]
  obligate anaerobes of the phylum Bacteroidetes and the phylum Firmicutes (short-chain fatty acids-producing bacteria): increase in obligate anaerobes of the phylum Bacteroidetes and the phylum Firmicutes
  short-chain fatty acid-producing bacteria of the family Lachnospiraceae, the family Ruminococcaceae, and the family Tannerellaceae: increased in group S alone compared with group C
ZO-1 [5]
  expression level of ZO-1: significantly higher than those in group E
